Assay results published in patent publication US20230312550A1, “N-(2-(4-CYANOTHIAZOLIDIN-3-YL)-2-OXOETHYL)-QUINOLINE-4-CARBOXAMIDES” (AstraZeneca AB, priority 2020, published 2023).
pIC50, pKd: −log10 of the molar value. Converted amounts (≈) assume the structure as drawn.

Key:
[1] = biological target: Prolyl endopeptidase, Prolyl Oligopeptidase (hPREP) (Homo sapiens (Human), UniProt P48147); assay: hPrep inhibition assay; type: biochemical; settings: hPREP 0.6 nM, Z-Gly-Pro-amino-methylcoumarin 50 μM; read-out: PREP IC50
Prolyl endopeptidase, Prolyl Oligopeptidase (hPREP), sequence (P48147 whole entry): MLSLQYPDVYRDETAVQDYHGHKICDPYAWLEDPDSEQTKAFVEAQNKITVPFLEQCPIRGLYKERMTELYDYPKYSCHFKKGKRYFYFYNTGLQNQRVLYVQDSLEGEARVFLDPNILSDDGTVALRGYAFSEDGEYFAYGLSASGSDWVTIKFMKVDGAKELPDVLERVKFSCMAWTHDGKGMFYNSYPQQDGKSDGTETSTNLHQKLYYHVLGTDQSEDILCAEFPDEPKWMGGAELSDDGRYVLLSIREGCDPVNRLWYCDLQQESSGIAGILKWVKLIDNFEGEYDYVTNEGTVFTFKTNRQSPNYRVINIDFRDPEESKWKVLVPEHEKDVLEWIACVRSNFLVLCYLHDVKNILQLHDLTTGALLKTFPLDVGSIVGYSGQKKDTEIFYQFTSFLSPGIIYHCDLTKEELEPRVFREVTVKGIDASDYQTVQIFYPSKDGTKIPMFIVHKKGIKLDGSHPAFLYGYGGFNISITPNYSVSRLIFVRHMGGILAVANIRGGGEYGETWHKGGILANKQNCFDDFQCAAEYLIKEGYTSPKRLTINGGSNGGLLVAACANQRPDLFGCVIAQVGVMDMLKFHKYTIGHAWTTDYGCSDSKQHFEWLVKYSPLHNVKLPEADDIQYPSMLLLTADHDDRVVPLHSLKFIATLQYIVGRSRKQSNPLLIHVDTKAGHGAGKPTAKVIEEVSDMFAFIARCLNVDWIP
Protocol: Compounds were tested in a biochemical inhibition assay using Prolyl endopeptidase, Prolyl Oligopeptidase (hPREP) enzyme at 0.6 nM FAC (R&D Systems, 4308-SE) and the substrate Z-Gly-Pro-amino-methylcoumarin (Bachem, I-1145) at 50 μM FAC. 384 Low volume black plates (Greiner #784076) were used. […] Plates were incubated for 15 min at rt in dark. 4 μL, 100 μM substrate solution (25 mM Tris HCl, 250 mM NaCl, 0.01% Triton X-100, 5 mM Glutathione, pH 7.5) was added to each well. Plates were centrifuged at 1000 rpm and incubated for 20 min at rt in dark. The plates were read on a PHERAstar® reader with excitation 340 nm and emission 460 nm. Data were analyzed in Genedata Screener®. IC50 values were determined by plotting % inhibition versus log compound concentration and using a one site dose response model.

[2] = biological target: human Fibroblast activation protein alpha (hFAP) (Homo sapiens (Human), UniProt Q12884); assay: hFAP inhibition assay (tight binders); type: biochemical; settings: Ala-Pro-AMC 20 μM, n = 1 or geometric mean n = 2-6; further: hFAP 2.4 pM
human Fibroblast activation protein alpha (hFAP), sequence (Q12884 38-760): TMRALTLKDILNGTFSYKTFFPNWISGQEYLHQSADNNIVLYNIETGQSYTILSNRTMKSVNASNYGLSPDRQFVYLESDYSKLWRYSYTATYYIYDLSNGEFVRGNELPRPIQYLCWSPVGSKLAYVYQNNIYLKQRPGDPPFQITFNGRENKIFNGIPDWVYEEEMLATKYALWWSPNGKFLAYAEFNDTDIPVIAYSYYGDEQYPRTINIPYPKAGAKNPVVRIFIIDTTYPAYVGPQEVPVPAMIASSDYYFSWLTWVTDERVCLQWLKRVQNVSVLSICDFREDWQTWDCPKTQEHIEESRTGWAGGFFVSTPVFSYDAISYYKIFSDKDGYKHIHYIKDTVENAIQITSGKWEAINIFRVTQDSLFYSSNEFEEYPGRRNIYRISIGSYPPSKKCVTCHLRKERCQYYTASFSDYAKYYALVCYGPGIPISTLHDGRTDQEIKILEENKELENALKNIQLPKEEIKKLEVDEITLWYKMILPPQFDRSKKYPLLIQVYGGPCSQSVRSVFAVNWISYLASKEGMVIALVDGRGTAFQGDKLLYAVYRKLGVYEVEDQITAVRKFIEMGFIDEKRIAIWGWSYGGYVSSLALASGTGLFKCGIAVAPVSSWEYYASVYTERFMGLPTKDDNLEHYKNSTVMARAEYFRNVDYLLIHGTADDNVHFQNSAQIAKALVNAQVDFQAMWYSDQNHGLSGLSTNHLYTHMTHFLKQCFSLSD
Protocol: The plates were read on a PHERAstar® reader with excitation 340 nm and emission 460 nm. Data were analyzed in Genedata Screener®. IC50 values were determined by plotting % inhibition versus log compound concentration and using a one site dose response model.

[3] = Metabolic stability in rat hepatocytes (rHep); settings: n = 1 or geometric mean of n = 2-3
hFAP (M39-A757) = hFAP (M39-A757) (Homo sapiens (Human), UniProt Q12884); assay: hFAP binding assay (surface plasmon resonance); settings: SPR, 20° C.; for pKd: n = 1 or geometric mean n = 2-4; for hFAP Binding assay k(off) / hFAP Binding assay k(on): single cycle kinetics
hFAP (M39-A757), sequence (Q12884 39-757): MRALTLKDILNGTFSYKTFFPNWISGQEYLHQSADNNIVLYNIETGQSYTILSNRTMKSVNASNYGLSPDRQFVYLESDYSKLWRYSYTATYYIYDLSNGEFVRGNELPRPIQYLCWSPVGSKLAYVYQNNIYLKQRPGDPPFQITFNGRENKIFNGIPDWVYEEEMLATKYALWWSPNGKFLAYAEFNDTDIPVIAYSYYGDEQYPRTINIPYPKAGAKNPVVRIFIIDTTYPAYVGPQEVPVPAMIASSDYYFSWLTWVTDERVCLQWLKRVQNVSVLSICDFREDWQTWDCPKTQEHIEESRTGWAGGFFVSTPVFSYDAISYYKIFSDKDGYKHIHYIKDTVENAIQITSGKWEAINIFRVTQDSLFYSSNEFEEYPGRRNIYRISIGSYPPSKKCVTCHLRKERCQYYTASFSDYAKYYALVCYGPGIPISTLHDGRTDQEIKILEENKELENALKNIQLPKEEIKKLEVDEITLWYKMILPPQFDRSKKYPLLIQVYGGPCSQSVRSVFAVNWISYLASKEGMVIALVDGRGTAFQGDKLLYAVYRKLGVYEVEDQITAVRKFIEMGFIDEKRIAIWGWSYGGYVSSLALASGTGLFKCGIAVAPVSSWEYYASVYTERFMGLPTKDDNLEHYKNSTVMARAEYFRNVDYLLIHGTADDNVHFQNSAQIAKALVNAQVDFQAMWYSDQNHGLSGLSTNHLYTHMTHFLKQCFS

[4] = Metabolic stability in human liver microsomes (HLM); settings: for microsomal CLint: human
Protocol: Metabolic stability in HLM was measured as described in J Comput Aided Mol Des 2015, 29, 795.

[5] = kinetic from dmso stock, Solubility, kinetic solubility, n = 1 or average of n = 2-3
[6] = HLM CLint, n = 1 or average of n = 2-3

Protocol for Kinetic solubility: Kinetic solubility was measured as described in Comput Aided Mol Des 2015, 29, 795.

Work on C[C@@H]1CN(c2ccc3nccc(C(=O)NCC(=O)N4CSC[C@H]4C#N)c3c2)C[C@H]1C (single isomer, unassigned) [Example 226, N-(2-((R)-4-Cyanothiazolidin-3-yl)-2-oxoethyl)-6-((3R*,4R*)-3,4-dimethylpyrrolidin-1-yl)quinoline-4-carboxamide] yielded a pIC50 [1] of 6.18, a pIC50 [2] of 9.70 and a solubility (Kinetic solubility; kinetic solubility, n = 1 or average of n = 2-3) of 4.5 µM (≈ 1.91 µg/mL). The “rHep CLint” value [3] was 44 μL/min/1E6, the pKd (hFAP (M39-A757)) was 10.36 and the “HLM CLint” value ([4]; n = 1 or average of n = 2-3) was 94 µL/min/mg.

Compound N#C[C@@H]1CSCN1C(=O)CNC(=O)c1ccnc2ccc(N3CCC4(CCOCC4)CC3)cc12 [Example 162, (R)—N-(2-(4-cyanothiazolidin-3-yl)-2-oxoethyl)-6-(3-oxa-9-azaspiro[5.5]undecan-9-yl)quinoline-4-carboxamide] has a pIC50 [1] of 6.55, a pIC50 [2] of 10.28 and a solubility (Kinetic solubility; kinetic from dmso stock) of 140 µM (≈ 67.1 µg/mL). For the same compound, the “rHep CLint” value [3] was 3.4 μL/min/1E6, the “hFAP Binding assay k(off)” value (hFAP (M39-A757)) was 0.000028 s⁻¹ and the “hFAP Binding assay k(on)” value (hFAP (M39-A757)) was 1900000 M⁻¹ s⁻¹. It also gave a pKd (hFAP (M39-A757)) of 10.74 and a microsomal CLint [4] of 44 µL/min/mg.

CC1(CC(F)(F)F)CN(c2ccc3nccc(C(=O)NCC(=O)N4CSC[C@H]4C#N)c3c2)C1 [Example 131, (R)—N-(2-(4-Cyanothiazolidin-3-yl)-2-oxoethyl)-6-(3-methyl-3-(2,2,2-trifluoroethyl)azetidin-1-yl)quinoline-4-carboxamide] showed a pIC50 [1] of 6.44, a pIC50 [2] of 9.92 and a solubility (Kinetic solubility; [5]) of 140 µM (≈ 66.9 µg/mL). For the same compound, the “rHep CLint” value [3] was 16 μL/min/1E6, the “hFAP Binding assay k(off)” value (hFAP (M39-A757)) was 0.00014 s⁻¹ and the “hFAP Binding assay k(on)” value (hFAP (M39-A757)) was 1800000 M⁻¹ s⁻¹. It also gave a pKd (hFAP (M39-A757)) of 10.48 and a microsomal CLint [4, 6] of 97 µL/min/mg.

In the case of N#C[C@@H]1CSCN1C(=O)CNC(=O)c1ccnc2ccc(N3CC(C4CC4)C3)cc12 [Example 145, (R)—N-(2-(4-Cyanothiazolidin-3-yl)-2-oxoethyl)-6-(3-cyclopropylazetidin-1-yl)quinoline-4-carboxamide], the pIC50 [1] was 6.60, the pIC50 [2] was 10.15 and the solubility (Kinetic solubility; [5]) was 5.3 µM (≈ 2.23 µg/mL). The “rHep CLint” value [3] was 10 μL/min/1E6, the “hFAP Binding assay k(off)” value (hFAP (M39-A757)) was 0.00013 s⁻¹ and the “hFAP Binding assay k(on)” value (hFAP (M39-A757)) was 4500000 M⁻¹ s⁻¹. The pKd (hFAP (M39-A757)) was 10.54 and the microsomal CLint [4, 6] was 40 µL/min/mg.

In the case of CC1(C)CCc2cn(-c3ccc4nccc(C(=O)NCC(=O)N5CSC[C@H]5C#N)c4c3)nc21 [Example 117, (R)—N-(2-(4-Cyanothiazolidin-3-yl)-2-oxoethyl)-6-(6,6-dimethyl-5,6-dihydrocyclopenta[c]pyrazol-2(4H)-yl)quinoline-4-carboxamide], the pIC50 [1] was 6.77, the pIC50 [2] was 10.21 and the solubility (Kinetic solubility; [5]) was 25 µM (≈ 11.5 µg/mL). For the same compound, the “rHep CLint” value [3] was 29 μL/min/1E6, the pKd (hFAP (M39-A757)) was 10.22 and the microsomal CLint [4, 6] was 170 µL/min/mg.

For N#C[C@@H]1CSCN1C(=O)CNC(=O)c1ccnc2ccc(N3CCO[C@@H](C(F)(F)F)C3)cc12 [Example 73, N-(2-((R)-4-Cyanothiazolidin-3-yl)-2-oxoethyl)-6-((R)-2-(trifluoromethyl)-morpholino)quinoline-4-carboxamide], the pIC50 [1] was 5.74, the pIC50 [2] was 9.89 and the solubility (Kinetic solubility; [5]) was 310 µM (≈ 149 µg/mL). For the same compound, the “rHep CLint” value [3] was 11 μL/min/1E6, the “hFAP Binding assay k(off)” value (hFAP (M39-A757)) was 0.00016 s⁻¹ and the “hFAP Binding assay k(on)” value (hFAP (M39-A757)) was 2400000 M⁻¹ s⁻¹. The pKd (hFAP (M39-A757)) was 10.18 and the microsomal CLint [4, 6] was 32 µL/min/mg.

In the case of N#C[C@@H]1CSCN1C(=O)CNC(=O)c1ccnc2cc(Cl)c(N3CCOCC3)cc12 [Example 179, (R)-7-Chloro-N-(2-(4-cyanothiazolidin-3-yl)-2-oxoethyl)-6-morpholino-quinoline-4-carboxamide], the pIC50 [1] was 6.33, the pIC50 [2] was 10.32 and the solubility (Kinetic solubility; [5]) was 110 µM (≈ 49.1 µg/mL). For the same compound, the “rHep CLint” value [3] was 47 μL/min/1E6, the “hFAP Binding assay k(off)” value (hFAP (M39-A757)) was 0.00016 s⁻¹ and the “hFAP Binding assay k(on)” value (hFAP (M39-A757)) was 3200000 M⁻¹ s⁻¹. The pKd (hFAP (M39-A757)) was 10.28 and the microsomal CLint [4, 6] was 140 µL/min/mg.

With N#C[C@@H]1CSCN1C(=O)CNC(=O)c1ccnc2ccc(N3CCC[C@@H]3C3CC3)cc12 (single isomer, unassigned) [Example 199, N-(2-((R)-4-Cyanothiazolidin-3-yl)-2-oxoethyl)-6-((R*)-2-cyclopropyl-pyrrolidin-1-yl)quinoline-4-carboxamide] the pIC50 [1] was 6.77, the pIC50 [2] was 9.52 and the solubility (Kinetic solubility; [5]) was 85 µM (≈ 37 µg/mL). The “rHep CLint” value [3] was 250 μL/min/1E6, the “hFAP Binding assay k(off)” value (hFAP (M39-A757)) was 0.00026 s⁻¹ and the “hFAP Binding assay k(on)” value (hFAP (M39-A757)) was 2300000 M⁻¹ s⁻¹. It also gave a pKd (hFAP (M39-A757)) of 10.00 and a microsomal CLint [4, 6] greater than 300 µL/min/mg.

CC1CC2(C1)CN(c1ccc3nccc(C(=O)NCC(=O)N4CSC[C@H]4C#N)c3c1)C2 [Example 149, (R)—N-(2-(4-Cyanothiazolidin-3-yl)-2-oxoethyl)-6-(6-methyl-2-azaspiro[3.3]heptan-2-yl)quinoline-4-carboxamide] gave a pIC50 [1] of 6.33, a pIC50 [2] of 10.01 and a solubility (Kinetic solubility; kinetic from dmso stock) of 130 µM (≈ 56.6 µg/mL). The “rHep CLint” value [3] was 7 μL/min/1E6, the “hFAP Binding assay k(off)” value (hFAP (M39-A757)) was 0.000039 s⁻¹ and the “hFAP Binding assay k(on)” value (hFAP (M39-A757)) was 4800000 M⁻¹ s⁻¹. It also gave a pKd (hFAP (M39-A757)) of 11.06 and a microsomal CLint [4] of 56 µL/min/mg.

For CC(F)(F)CC1CN(c2ccc3nccc(C(=O)NCC(=O)N4CSC[C@H]4C#N)c3c2)C1 [Example 140, (R)—N-(2-(4-Cyanothiazolidin-3-yl)-2-oxoethyl)-6-(3-(2,2-difluoropropyl)-azetidin-1-yl)quinoline-4-carboxamide], the pIC50 [1] was 6.08, the pIC50 [2] was 10.00 and the solubility (Kinetic solubility; [5]) was 39 µM (≈ 17.9 µg/mL). For the same compound, the “rHep CLint” value [3] was 7.7 μL/min/1E6, the “hFAP Binding assay k(off)” value (hFAP (M39-A757)) was 0.00016 s⁻¹ and the “hFAP Binding assay k(on)” value (hFAP (M39-A757)) was 2600000 M⁻¹ s⁻¹. For the same compound, the pKd (hFAP (M39-A757)) was 10.19 and the microsomal CLint [4, 6] was 32 µL/min/mg.

In the case of C[C@]1(O)CCN(c2ccc3nccc(C(=O)NCC(=O)N4CSC[C@H]4C#N)c3c2)C1 [Example 168, N-(2-((R)-4-Cyanothiazolidin-3-yl)-2-oxoethyl)-6-((S)-3-hydroxy-3-methylpyrrolidin-1-yl)quinoline-4-carboxamide], the pIC50 [1] was 6.20, the pIC50 [2] was 9.80 and the “hFAP Binding assay k(off)” value (hFAP (M39-A757)) was 0.000048 s⁻¹. The “hFAP Binding assay k(on)” value (hFAP (M39-A757)) was 1600000 M⁻¹ s⁻¹ and the pKd (hFAP (M39-A757)) was 10.49.

With N#C[C@@H]1CSCN1C(=O)CNC(=O)c1ccnc2ccc(N3CCC4(CC3)OCCCO4)cc12 [Example 227, (R)—N-(2-(4-cyanothiazolidin-3-yl)-2-oxoethyl)-6-(1,5-dioxa-9-azaspiro[5.5]undecan-9-yl)quinoline-4-carboxamide] the pIC50 [1] was 6.22, the solubility (Kinetic solubility; kinetic from dmso stock) was 852 µM (≈ 410 µg/mL) and the “rHep CLint” value [3] was 2.8 μL/min/1E6. For the same compound, the microsomal CLint [4] was 17 µL/min/mg.

With N#C[C@@H]1CSCN1C(=O)CNC(=O)c1ccnc2ccc(N3CCOc4ccccc43)cc12 [Example 6, (R)—N-(2-(4-Cyanothiazolidin-3-yl)-2-oxoethyl)-6-(2,3-dihydro-4H-benzo[b][1,4]oxazin-4-yl)quinoline-4-carboxamide] the pIC50 [1] was 6.70, the pIC50 [2] was 9.29 and the solubility (Kinetic solubility; [5]) was 120 µM (≈ 55.1 µg/mL). The “rHep CLint” value [3] was 100 μL/min/1E6, the “hFAP Binding assay k(off)” value (hFAP (M39-A757)) was 18 s⁻¹ and the “hFAP Binding assay k(on)” value (hFAP (M39-A757)) was 40000000000 M⁻¹ s⁻¹. The pKd (hFAP (M39-A757)) was 9.42.

In the case of N#C[C@@H]1CSCN1C(=O)CNC(=O)c1ccnc2ccc(N3CCCOCC3)cc12 [Example 91, (R)—N-(2-(4-Cyanothiazolidin-3-yl)-2-oxoethyl)-6-(1,4-oxazepan-4-yl)-quinoline-4-carboxamide], the pIC50 [1] was 6.59, the “hFAP Binding assay k(off)” value (hFAP (M39-A757)) was 0.00021 s⁻¹ and the “hFAP Binding assay k(on)” value (hFAP (M39-A757)) was 3200000 M⁻¹ s⁻¹.
